SMILES strings stand for the structures. Like-named read-outs stand apart in the source and are kept apart here. Where only a bound is given, the exact number is not on record here.

The subject of experiment [1] is human dedifferentiated fat (DFAT) cells. In words: Osteogenic differentiation assay: ALP activity in human DFAT cells. The class given is cell-based. The settings on record: osteogenic medium, 100 nM, 7 days, natural hormone 1 = 100%. How it is done: Mature adipocytes from the adipose tissue of mammals such as humans and rodents can be dedifferentiated into pluripotent cells using ceiling culture. Dedifferentiated fat (DFAT) cells have potential applications in both regenerative medicine and injury healing, as well as mesenchymal stem cells, embryonic stem cells, and induced pluripotent stem cells. The osteogenic activity of vitamin D derivatives was assessed based on alkaline phosphatase (ALP) activity.
Samples of human subcutaneous adipose tissue were obtained from patients who underwent surgery in the Department of Pediatric Surgery at Nihon University Itabashi Hospital (Tokyo, Japan). The patients gave their written informed consent, and the Ethics Committee of Nihon University School of Medicine approved this study. We prepared dedifferentiated fat (DFAT) cells using the ceiling culture method, as described previously. Briefly, the adipose tissue (approximately 1 g) was cut into small pieces and digested with a 0.1% type I collagenase solution (Koken Co., Ltd., Tokyo, Japan). […] The cells that adhered to the upper surface of the flasks were cultured for conversion to dedifferentiated fat cells. […] Cells at passages 2–4 were used for differentiation experiments.
Cells were grown to confluency in 24-well plates and incubated for a week in DMEM containing 10% FBS, 100 nM dexamethasone (Merk), 10 mM β-glycerophosphate (Merk), and […] L-ascorbic acid-2-phosphate (Merk), with 100 nM of each compound. The induction medium was replaced on day 4. The alkaline phosphatase (ALP) activity in the cell lysates was determined on day 7 with a lab assay ALP kit (Fujifilm wako). The total protein content was determined with the BCA protein assay kit (Thermo Fisher Scientific). ALP levels were normalized to the total protein content.

Experiment [2] deals with VDR. The settings on record: literature values, cited from earlier work; for EC50: read-out: Transcriptional Activity EC50.
Experiment [3] deals with VDR. The settings on record: cited from earlier work; for IC50: literature values, read-out: VDR Affinity IC50; for VDR affinity, % of that of 1: relative to 1,25(OH)2D3 (1).
The test system of experiment [4] is VDR. The settings on record: antagonist activity for 1; read-out: Antagonistic Activity IC50; cited from earlier work.

`C=C1/C(=C\C=C2/CCC[C@]3(C)[C@@H]([C@H](C)CCCC(C)(C)O)CC[C@@H]23)C[C@@H](O)C[C@@H]1O` [1,25(OH)2D3, 1α,25-dihydroxyvitamin D3] came in with an ALP activity in experiment [1] of 100%.

In the case of `C=C1[C@H](O)CC(=C/C=C2\CCC[C@]3(C)[C@@H]([C@@H](C)/C=C/C[C@H](O)CC45CC6CC(CC(C6)C4)C5)CC[C@@H]23)C[C@H]1O` [ADMI3, (25S)-26-adamantyl-25-hydroxy-2-methylene-22,23-didehydro-19,27-dinor-20-epi-vitamin D3], the “Transcriptional Activity % Efficacy of That of 1” value with VDR [2] is recorded as 10%. Also, in the experiment on VDR [3], the IC50 was 0.6 nM and the “VDR affinity, % of that of 1” value is recorded as 17%.

Regarding `C=C1/C(=C\C=C2/CCC[C@]3(C)[C@@H]([C@H](C)CC#C[C@@H](O)C45CC6CC(CC(C6)C4)C5)CC[C@@H]23)C[C@@H](O)C[C@@H]1O` [ADOR1, 25 S-sdamantyl-23-yne-26,27-dinor-1α,25-dihydroxyvitamin D(3)], in the experiment on VDR [2], the “Transcriptional Activity % Efficacy of That of 1” value is listed as 87% and the EC50 was 0.03 nM. Moreover, in the experiment with VDR [3], the IC50 was 0.24 nM.

Consider `C=C1/C(=C\C=C2/CCC[C@]3(C)[C@@H]([C@H](C)CC#C[C@H](O)C45CC6CC(CC(C6)C4)C5)CC[C@@H]23)C[C@@H](O)C[C@@H]1O` [ADOR2], for which, in the experiment with VDR [2], the “Transcriptional Activity % Efficacy of That of 1” value is recorded as over 52% and the EC50 was 5.7 nM. Moreover, the IC50 in the experiment with VDR [3] was 0.6 nM.

As for `C=C1[C@H](O)CC(=C/C=C2\CCC[C@]3(C)[C@@H]([C@@H](C)/C=C/C[C@@H](O)C45CC6CC(CC(C6)C4)C5)CC[C@@H]23)C[C@H]1O` [ADTT], the IC50 with VDR [4] is 3 nM. For the same compound, in the experiment on VDR [2], the “Transcriptional Activity % Efficacy of That of 1” value was 15% and the EC50 was 1 nM. Also, in the experiment with VDR [3], the IC50 is 0.13 nM and the “VDR affinity, % of that of 1” value is on record as 67%.

Take `C=C1C[C@H](C[C@@H](C)[C@H]2CC[C@H]3/C(=C/C=C4/C[C@@H](O)C[C@H](O)C4=C)CCC[C@]23C)OC1=O` [TEI-9647, (23S)-25-dehydro-1α-hydroxyvitamin D3-26,23-lactone]: the IC50 in the experiment on VDR [4] is 100 nM; with VDR [3], 1 nM. In addition, in the experiment with VDR [2], the EC50 is 50 nM.

On to `C=C1/C(=C\C=C2/CCC[C@]3(C)[C@@H]([C@H](C)/C=C/[C@@H](O)C4(C(=O)O/C=C\C(=O)OCC)CC4)CC[C@@H]23)C[C@@H](O)C[C@@H]1O` [ZK168281], for which the IC50 with VDR [4] was 50 nM.

The values above are taken from PMC10377034, “Syntheses of 25-Adamantyl-25-alkyl-2-methylidene-1α,25-dihydroxyvitamin D3 Derivatives with Structure–Function Studies of Antagonistic and Agonistic Active Vitamin D Analogs” (Biomolecules, 2023).
